≈ marks a conversion by molar mass, not a printed value. Structures can show the parent of a compound that is named as a salt. Where two headings read alike, the source gives them in different places.

The values that follow come from patent publication US11220500B2, “Crystalline form of Valbenazine dibesylate” (Apotex Inc., priority 2018, dated 2022).

The nature of data set [1]: Form stability by PXRD of uncapped samples in a 27° C./60% RH stability chamber. Format: physicochemical. How it is done: Valbenazine dibesylate Form APO-I can be characterized by a PXRD diffractogram comprising, among other peaks, characteristic peaks, expressed in degrees 2θ (±0.2°), at 6.3°, 9.8° and 15.6°. Preferably, the PXRD diffractogram further comprises at least three peaks, expressed in degrees 2θ (±0.2°), selected from the group consisting of 5.3°, 7.7°, 8.5°, 12.5°, 14.0°, 16.8°, 17.1°, 17.8°, 18.6° and 19.7°. More preferably, the PXRD diffractogram further comprises peaks, expressed in degrees 2θ (±0.2°), at 5.3°, 7.7°, 8.5°, 12.5°, 14.0°, 16.8°, 17.1°, 17.8°, 18.6° and 19.7°.
Data were acquired on a PANanalytical X'Pert Pro MPD diffractometer with fixed divergence slits and an X'Celerator detector. The diffractometer was configured in Bragg-Brentano geometry; data was collected over a 2θ range of 3° to 40° using CuKα radiation at a power of 40 mA and 45 kV. CuKβ radiation was removed using a divergent beam nickel filter. A step size of 0.017°, and a step time of 40 seconds, was used. Raw data were evaluated using X'Pert High Score Plus. Samples were rotated to reduce preferred orientation effects. Samples were lightly ground prior to analysis.

The nature of the next data set: physchem. The note with it: 37 °C, thermodynamic from solid, Solubility expressed as Valbenazine free base.
The conditions of data set [2]: 24 h.
Procedure: (§1) The solubility of Valbenazine free base, Valbenazine ditosylate and Valbenazine dibesylate were measured in buffer solutions (pH 1.2 to 6.8) in a temperature-controlled water bath at 37° C. with stirring using magnetic stir bars at 325 rpm (rotations per minute). Each Valbenazine sample was weighed and transferred into a 20 mL vial and then 10 mL of buffer was added. The samples were shaken for 1 minute. If all sample dissolved, more sample was added until a saturated solution was obtained. The samples were then equilibrated at 37° C. with stirring using magnetic stir bars at 325 rpm for 24 hours. After equilibration, samples were filtered through 0.45 μm PVDF filters and further diluted with a methanol/water (60/40 v/v) solution. Samples were analyzed by HPLC against known concentrations of standards. The pH values of the solutions were measured after completion of testing.
Data set [3] in a line: Comparative solubility of Valbenazine forms in buffer solutions (pH 1.2 to 6.8) at 37° C., HPLC. The note with it: equilibrated 24 hours.
Procedure: as §1

Procedure for physchem: as §1

As usually defined, the solubility is how much of the substance goes into solution per volume. A low value points to little dissolved substance. Turning to `COc1cc2c(cc1OC)[C@H]1C[C@@H](OC(=O)[C@@H](N)C(C)C)[C@H](CC(C)C)CN1CC2` [Dibesylate salt, Valbenazine dibesylate], in data set [1] (open exposure to 27° C./60% RH for at least 5 months), the Form stability entry is listed as “exhibits form stability”. Besides, the “Change in the crystalline form (PXRD)” value in data set [1] (uncapped samples, 27° C./60% RH stability chamber, at least 20 weeks) is on record as “no change in the crystalline form”. This compound registered a solubility at 24 h in “physchem” (pH 4.5, aqueous buffer) of 18.5 mg/mL. In addition, the “Difference of aqueous solubility from that of Valbenazine ditosylate of the approved drug product” value in data set [2] is at most 10 % units. The “Solubility expressed as Valbenazine free base” value in data set [2] (pH 1.2) is on record as 22.4 mg/mL; in data set [2] (pH 6.8), 8.1 mg/mL.

For the compound `COc1cc2c(cc1OC)[C@H]1C[C@@H](OC(=O)[C@@H](N)C(C)C)[C@H](CC(C)C)CN1CC2` [Free base, (2R,3R,11bR)-1,3,4,6,7,11b-hexahydro-9,10-dimethoxy-3-(2-methylpropyl)-2H-benzo[a]quinolizin-2-yl-L-valine ester], the solubility at 24 h in “physchem” (pH 1.2, simulated gastric fluid) was 21.3 mg/mL (≈ 50.9 mM). The “Solubility expressed as Valbenazine free base” value was determined as 21.6 mg/mL (≈ 51.6 mM) in data set [2] (pH 4.5) and 1.2 mg/mL (≈ 2.87 mM) in data set [2] (pH 6.8).

Take “Valbenazine ditosylate [Ditosylate salt]”: the “Solubility expressed as Valbenazine free base” value in data set [3] (buffer pH 1.2, 37° C.) was 20.9 mg/mL; in data set [3] (buffer pH 4.5, 37° C.), 17.7 mg/mL; in data set [3] (buffer pH 6.8, 37° C.) it was 7.6 mg/mL.
